Measured values: the supplement of paper PMC10307832

How the values were obtained:
Experiment in all cases: relative viability (nuclei count vs DMSO), 5 days (fraction); higher = more cells survive
Crizotinib + Navitoclax = compound: C[C@@H](Oc1cc(-c2cnn(C3CCNCC3)c2)cnc1N)c1c(Cl)ccc(F)c1Cl [Crizotinib] + CC1(C)CCC(c2ccc(Cl)cc2)=C(CN2CCN(c3ccc(C(=O)NS(=O)(=O)c4ccc(N[C@H](CCN5CCOCC5)CSc5ccccc5)c(S(=O)(=O)C(F)(F)F)c4)cc3)CC2)C1 [Navitoclax] (partner 0.5 µM)
Procedure, shortened: (§1)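 Lung cancer cell lines, seeded in 1536-well plates, were treated the following day by pin tool with a single drug or with five library-drug doses (not always all listed) in √10 steps on top of a fixed anchor-drug dose. Cells were fixed and nuclei stained in one step after 5 days, and nuclei were counted. Relative viability is the nuclei count for treated wells divided by that for vehicle wells, reported as medians of duplicate plates.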

Olaparib + Phenformin = compound: O=C(c1cc(Cc2n[nH]c(=O)c3ccccc23)ccc1F)N1CCN(C(=O)C2CC2)CC1 [Olaparib] + N=C(N)NC(=N)NCCc1ccccc1 [Phenformin] (partner 250 µM)
Procedure, shortened: as §1

Carfilzomib + Navitoclax = compound: CC(C)C[C@H](NC(=O)[C@H](CCc1ccccc1)NC(=O)CN1CCOCC1)C(=O)N[C@@H](Cc1ccccc1)C(=O)N[C@@H](CC(C)C)C(=O)[C@@]1(C)CO1 [Carfilzomib] + CC1(C)CCC(c2ccc(Cl)cc2)=C(CN2CCN(c3ccc(C(=O)NS(=O)(=O)c4ccc(N[C@H](CCN5CCOCC5)CSc5ccccc5)c(S(=O)(=O)C(F)(F)F)c4)cc3)CC2)C1 [Navitoclax] (partner 0.5 µM)
Procedure, shortened: as §1

Carfilzomib + OSI-027 = compound: CC(C)C[C@H](NC(=O)[C@H](CCc1ccccc1)NC(=O)CN1CCOCC1)C(=O)N[C@@H](Cc1ccccc1)C(=O)N[C@@H](CC(C)C)C(=O)[C@@]1(C)CO1 [Carfilzomib] + COc1cccc2cc(-c3nc([C@H]4CC[C@H](C(=O)O)CC4)n4ncnc(N)c34)[nH]c12 [OSI-027] (partner 0.5 µM)
Procedure, shortened: as §1

Carfilzomib + Dasatinib = compound: CC(C)C[C@H](NC(=O)[C@H](CCc1ccccc1)NC(=O)CN1CCOCC1)C(=O)N[C@@H](Cc1ccccc1)C(=O)N[C@@H](CC(C)C)C(=O)[C@@]1(C)CO1 [Carfilzomib] + Cc1nc(Nc2ncc(C(=O)Nc3c(C)cccc3Cl)s2)cc(N2CCN(CCO)CC2)n1 [Dasatinib] (partner 0.075 µM)
Procedure, shortened: as §1

NCI-H1793
relative viability (Crizotinib + Navitoclax; first compound 0.01 µM): 0.362
relative viability (Crizotinib + Navitoclax; first compound 0.03162 µM): 0.486
relative viability (Crizotinib + Navitoclax; first compound 0.1 µM): 0.384
relative viability (Crizotinib + Navitoclax; first compound 1 µM): 0.529
relative viability (Olaparib + Phenformin; first compound 0.08 µM): 0.341
relative viability (Olaparib + Phenformin; first compound 0.253 µM): 0.348
relative viability (Olaparib + Phenformin; first compound 2.53 µM): 0.305
relative viability (Olaparib + Phenformin; first compound 8 µM): 0.287
relative viability (Carfilzomib + Navitoclax; first compound 0.003162 µM): 0.497
relative viability (Carfilzomib + Navitoclax; first compound 0.01 µM): 0.52
relative viability (Carfilzomib + Navitoclax; first compound 0.03162 µM): 0.462
relative viability (Carfilzomib + Navitoclax; first compound 0.1 µM): 0.195
relative viability (Carfilzomib + OSI-027; first compound 0.003162 µM): 0.323
relative viability (Carfilzomib + OSI-027; first compound 0.01 µM): 0.369
relative viability (Carfilzomib + OSI-027; first compound 0.03162 µM): 0.269
relative viability (Carfilzomib + OSI-027; first compound 0.1 µM): 0.133
relative viability (Carfilzomib + Dasatinib; first compound 0.003162 µM): 0.507
relative viability (Carfilzomib + Dasatinib; first compound 0.01 µM): 0.353
relative viability (Carfilzomib + Dasatinib; first compound 0.03162 µM): 0.376
relative viability (Carfilzomib + Dasatinib; first compound 0.1 µM): 0.389
